In this assay the target is T1, KCNQ2/3 channels (Homo sapiens, UniProt O43525+O43526).
T1 construct: expressed in transfected cells
Briefly: Fluorescence assay using a voltage sensitive dye (fluorimetry). It is filed as cell-based. The settings on record: CHO-K1 cells expressing KCNQ2/3; for Emax: CHO-K1, plateau effect relative to saturated retigabine (50 μM) = 100%, negative values = antagonistic, read-out: Fluorimetry % efficacy (retigabine = 100%); for EC50: IC50 where % efficacy is negative, read-out: Fluorimetry EC50/IC50.

T1 sequence (O43526 whole entry): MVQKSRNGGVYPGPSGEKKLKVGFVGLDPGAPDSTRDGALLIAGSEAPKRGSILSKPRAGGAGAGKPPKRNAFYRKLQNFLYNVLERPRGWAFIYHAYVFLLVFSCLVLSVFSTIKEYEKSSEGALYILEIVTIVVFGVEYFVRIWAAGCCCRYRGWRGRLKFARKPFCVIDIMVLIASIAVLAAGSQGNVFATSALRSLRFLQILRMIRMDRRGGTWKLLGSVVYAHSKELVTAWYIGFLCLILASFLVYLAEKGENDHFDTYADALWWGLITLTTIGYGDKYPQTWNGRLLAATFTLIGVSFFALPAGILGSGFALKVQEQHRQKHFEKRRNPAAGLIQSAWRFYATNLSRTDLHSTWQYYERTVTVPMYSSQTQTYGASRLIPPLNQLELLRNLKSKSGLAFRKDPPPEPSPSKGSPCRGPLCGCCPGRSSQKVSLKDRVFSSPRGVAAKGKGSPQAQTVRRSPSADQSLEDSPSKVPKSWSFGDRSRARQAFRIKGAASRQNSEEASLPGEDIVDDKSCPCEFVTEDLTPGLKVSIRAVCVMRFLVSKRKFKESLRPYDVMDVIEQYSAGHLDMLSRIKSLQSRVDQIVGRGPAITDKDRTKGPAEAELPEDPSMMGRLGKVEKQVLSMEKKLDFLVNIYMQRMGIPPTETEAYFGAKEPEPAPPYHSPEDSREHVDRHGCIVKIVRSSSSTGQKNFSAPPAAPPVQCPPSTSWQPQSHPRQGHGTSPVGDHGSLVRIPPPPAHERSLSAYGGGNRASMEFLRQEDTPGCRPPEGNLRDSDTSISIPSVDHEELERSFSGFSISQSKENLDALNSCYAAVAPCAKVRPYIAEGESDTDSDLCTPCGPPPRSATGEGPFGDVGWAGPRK
T1 sequence (O43525 whole entry): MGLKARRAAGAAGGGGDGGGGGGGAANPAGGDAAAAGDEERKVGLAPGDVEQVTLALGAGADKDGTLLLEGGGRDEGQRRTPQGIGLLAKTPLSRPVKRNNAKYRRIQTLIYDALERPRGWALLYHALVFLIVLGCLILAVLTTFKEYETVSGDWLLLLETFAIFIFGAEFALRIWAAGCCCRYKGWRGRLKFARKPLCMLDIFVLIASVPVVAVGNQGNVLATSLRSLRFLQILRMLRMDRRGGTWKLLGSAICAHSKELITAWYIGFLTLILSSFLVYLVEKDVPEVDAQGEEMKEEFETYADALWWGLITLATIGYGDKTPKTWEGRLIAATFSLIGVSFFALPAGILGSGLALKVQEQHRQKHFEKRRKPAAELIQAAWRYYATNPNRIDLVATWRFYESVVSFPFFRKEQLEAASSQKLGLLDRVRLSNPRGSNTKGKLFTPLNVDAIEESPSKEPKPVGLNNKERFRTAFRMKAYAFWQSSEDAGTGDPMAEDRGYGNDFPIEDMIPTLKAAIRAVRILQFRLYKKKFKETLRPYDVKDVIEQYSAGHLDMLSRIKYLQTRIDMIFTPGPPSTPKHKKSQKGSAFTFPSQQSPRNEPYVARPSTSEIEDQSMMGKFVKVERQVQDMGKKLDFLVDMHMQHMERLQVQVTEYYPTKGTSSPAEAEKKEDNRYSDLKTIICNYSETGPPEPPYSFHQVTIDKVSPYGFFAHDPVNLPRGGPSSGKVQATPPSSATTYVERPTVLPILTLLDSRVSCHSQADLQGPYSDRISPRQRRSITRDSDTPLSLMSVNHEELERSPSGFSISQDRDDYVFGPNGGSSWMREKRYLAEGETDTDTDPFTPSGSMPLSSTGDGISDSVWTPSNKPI

Take `CCOc1nc(N2CCCOCC2)cc(C)c1C(=O)NCc1cccc(F)c1` [Example 99, 2-Ethoxy-N-[(3-fluorophenyl)-methyl]-4-methyl-6-([1,4]oxazepan-4-yl)-pyridine-3-carboxylic acid amide]: the Emax came out at 134% and the EC50 was found to be 899 nM.
Taken in the same sequence, the figures for `CCSc1nc(N2CCOCC2)cc(C)c1C(=O)NCc1cccc(F)c1F` [Example 100, N-[(2,3-Difluoro-phenyl)-methyl]-2-ethylsulfanyl-4-methyl-6-morpholin-4-yl-pyridine-3-carboxylic acid amide] were 98% and 118 nM.
In the case of `CCSc1nc(N2CCOCC2)cc(C)c1C(=O)NCc1cc(F)ccc1F` [Example 101, N-[(2,5-Difluoro-phenyl)-methyl]-2-ethylsulfanyl-4-methyl-6-morpholin-4-yl-pyridine-3-carboxylic acid amide], the Emax turned out to be 100% and the EC50 was found to be 133 nM.
Taken in the same sequence, the figures for `CCSc1nc(N2CCOCC2)cc(C)c1C(=O)NCc1cccc(C#N)c1` [Example 102, N-[(3-Cyano-phenyl)-methyl]-2-ethylsulfanyl-4-methyl-6-morpholin-4-yl-pyridine-3-carboxylic acid amide] were 138% and 1220 nM.
Take `CCSc1nc(N2CCOCC2)cc(C)c1C(=O)NCCOC(C)C` [Example 103, 2-Ethylsulfanyl-N-(2-isopropoxy-ethyl)-4-methyl-6-morpholin-4-yl-pyridine-3-carboxylic acid amide]: the Emax was 142% and the EC50 was 4520 nM.
For `CCSc1nc(N2CCOCC2)cc(C)c1C(=O)NCCC(C)(C)C` [Example 104, N-(3,3-Dimethyl-butyl)-2-ethylsulfanyl-4-methyl-6-morpholin-4-yl-pyridine-3-carboxylic acid amide], in that order: 100% and 1400 nM.
For `CCSc1nc(N2CCOCC2)cc(C)c1C(=O)NCCCC1CCCC1` [Example 105, N-(3-Cyclopentyl-propyl)-2-ethylsulfanyl-4-methyl-6-morpholin-4-yl-pyridine-3-carboxylic acid amide], in that order: 207% and 179 nM.
Taken in the same sequence, the figures for `CCSc1nc(N2CCOCC2)cc(C)c1C(=O)NCCC1CCCCC1` [Example 106, N-(2-Cyclohexyl-ethyl)-2-ethylsulfanyl-4-methyl-6-morpholin-4-yl-pyridine-3-carboxylic acid amide] were 160% and 172 nM.
As for `CCSc1nc(N2CCOCC2)cc(C)c1C(=O)NCc1ccc(F)cc1F` [Example 107, N-[(2,4-Difluoro-phenyl)-methyl]-2-ethylsulfanyl-4-methyl-6-morpholin-4-yl-pyridine-3-carboxylic acid amide], the Emax is 90% and the EC50 is 88 nM.
As to `CCSc1nc(N2CCOCC2)cc(C)c1C(=O)NCCCc1ccc(F)cc1` [Example 108, 2-Ethylsulfanyl-N-[3-(4-fluorophenyl)-propyl]-4-methyl-6-morpholin-4-yl-pyridine-3-carboxylic acid amide], the Emax was found to be 203% and the EC50 came out at 317 nM.
Regarding `CCSc1nc(N2CCOCC2)cc(C)c1C(=O)NCCCc1ccccn1` [Example 109, 2-Ethylsulfanyl-4-methyl-6-morpholin-4-yl-N-(3-pyridin-2-yl-propyl)-pyridine-3-carboxylic acid amide], the Emax stood at 53%.
`CCCCOc1nc(N2CCOCC2)cc(C)c1C(=O)NCc1cccc(F)c1` [Example 110, 2-Butoxy-N-[(3-fluorophenyl)-methyl]-4-methyl-6-morpholin-4-yl-pyridine-3-carboxylic acid amide]: the Emax is 163% and the EC50 was found to be 71 nM.
Taken in the same sequence, the figures for `CCCOc1nc(N2CCOCC2)cc(C)c1C(=O)NCc1cccc(F)c1` [Example 111, N-[(3-Fluorophenyl)-methyl]-4-methyl-6-morpholin-4-yl-2-propoxy-pyridine-3-carboxylic acid amide] were 153% and 109 nM.
For `CCSc1nc(N2CC(=O)C2)cc(C)c1C(=O)NCc1cccc(F)c1` [Example 112, 2-Ethylsulfanyl-N-[(3-fluorophenyl)-methyl]-4-methyl-6-(3-oxo-azetidin-1-yl)-pyridine-3-carboxylic acid amide], in that order: 130% and 2740 nM.
Taken in the same sequence, the figures for `CCSc1nc(N2CCOCC2)cc(C)c1C(=O)NCCCc1cccc(F)c1` [Example 113, 2-Ethylsulfanyl-N-[3-(3-fluorophenyl)-propyl]-4-methyl-6-morpholin-4-yl-pyridine-3-carboxylic acid amide] were 192% and 212 nM.
On to `CCSc1nc(N2CCOCC2)cc(C)c1C(=O)NCCCc1cccnc1` [Example 114, 2-Ethylsulfanyl-4-methyl-6-morpholin-4-yl-N-(3-pyridin-3-yl-propyl)-pyridine-3-carboxylic acid amide], for which the Emax worked out at 126% and the EC50 stood at 9380 nM.
For `CCSc1nc(N2CCOCC2)cc(C)c1C(=O)NCCCc1ccncc1` [Example 115, 2-Ethylsulfanyl-4-methyl-6-morpholin-4-yl-N-(3-pyridin-4-yl-propyl)-pyridine-3-carboxylic acid amide], in that order: 96% and 7970 nM.
For `CCSc1nc(N2CCOCC2)cc(C)c1C(=O)NCCCCC(C)(C)C` [Example 116, N-(5,5-Dimethyl-hexyl)-2-ethylsulfanyl-4-methyl-6-morpholin-4-yl-pyridine-3-carboxylic acid amide], in that order: 210% and 131 nM.
In the case of `COc1nc(N2CCOCC2)cc(C)c1C(=O)NCc1ccc(C(F)(F)F)cc1` [Example 117, 2-Methoxy-4-methyl-6-morpholin-4-yl-N-[[4-(trifluoromethyl)-phenyl]-methyl]pyridine-3-carboxylic acid amide], the Emax was found to be 128% and the EC50 stood at 268 nM.
For `CCSc1nc(N(C)Cc2ccncc2)cc(C)c1C(=O)NCc1cccc(F)c1` [Example 118, 2-Ethylsulfanyl-N-[(3-fluorophenyl)-methyl]-4-methyl-6-[methyl-(pyridin-4-yl-methyl)-amino]-pyridine-3-carboxylic acid amide], the Emax worked out at 3%.
With `CCSc1nc(N(C)Cc2cccnc2)cc(C)c1C(=O)NCc1cccc(F)c1` [Example 119, 2-Ethylsulfanyl-N-[(3-fluorophenyl)-methyl]-4-methyl-6-[methyl-(pyridin-3-yl-methyl)-amino]-pyridine-3-carboxylic acid amide], the Emax was determined as 91% and the EC50 was 2420 nM.
Turning to `CCSc1nc(N(C)C(=O)c2ccc(F)cc2)cc(C)c1C(=O)NCc1cccc(F)c1` [Example 120, 2-Ethylsulfanyl-6-[(4-fluoro-benzoyl)-methyl-amino]-N-[(3-fluorophenyl)-methyl]-4-methyl-pyridine-3-carboxylic acid amide], the Emax was found to be 10%.
Still for that read-out and setting: in the case of `CCSc1nc(N(C)Cc2ccccn2)cc(C)c1C(=O)NCc1cccc(F)c1` [Example 121, 2-Ethylsulfanyl-N-[(3-fluorophenyl)-methyl]-4-methyl-6-[methyl-(pyridin-2-yl-methyl)-amino]-pyridine-3-carboxylic acid amide] it was 35%.
